Reference: ChEMBL document CHEMBL1143296, “Thienopyrimidine-based dual EGFR/ErbB-2 inhibitors” (Bioorg Med Chem Lett, 2009)

Experiments:
[1] = system: HFF; assay: Antiproliferative activity against HFF after 72 hrs by CTG assay; conditions: Homo sapiens
[2] = system: BT-474; assay: Antiproliferative activity against human BT474 cells expressing ErbB2 after 72 hrs by CTG assay; conditions: BT-474, 72 h
[3] = molecular target: Epidermal growth factor receptor (Homo sapiens, UniProt P00533)
[4] = molecular target: T1, Receptor tyrosine-protein kinase erbB-2 (Homo sapiens, UniProt P04626)
T1 sequence (P04626 whole entry): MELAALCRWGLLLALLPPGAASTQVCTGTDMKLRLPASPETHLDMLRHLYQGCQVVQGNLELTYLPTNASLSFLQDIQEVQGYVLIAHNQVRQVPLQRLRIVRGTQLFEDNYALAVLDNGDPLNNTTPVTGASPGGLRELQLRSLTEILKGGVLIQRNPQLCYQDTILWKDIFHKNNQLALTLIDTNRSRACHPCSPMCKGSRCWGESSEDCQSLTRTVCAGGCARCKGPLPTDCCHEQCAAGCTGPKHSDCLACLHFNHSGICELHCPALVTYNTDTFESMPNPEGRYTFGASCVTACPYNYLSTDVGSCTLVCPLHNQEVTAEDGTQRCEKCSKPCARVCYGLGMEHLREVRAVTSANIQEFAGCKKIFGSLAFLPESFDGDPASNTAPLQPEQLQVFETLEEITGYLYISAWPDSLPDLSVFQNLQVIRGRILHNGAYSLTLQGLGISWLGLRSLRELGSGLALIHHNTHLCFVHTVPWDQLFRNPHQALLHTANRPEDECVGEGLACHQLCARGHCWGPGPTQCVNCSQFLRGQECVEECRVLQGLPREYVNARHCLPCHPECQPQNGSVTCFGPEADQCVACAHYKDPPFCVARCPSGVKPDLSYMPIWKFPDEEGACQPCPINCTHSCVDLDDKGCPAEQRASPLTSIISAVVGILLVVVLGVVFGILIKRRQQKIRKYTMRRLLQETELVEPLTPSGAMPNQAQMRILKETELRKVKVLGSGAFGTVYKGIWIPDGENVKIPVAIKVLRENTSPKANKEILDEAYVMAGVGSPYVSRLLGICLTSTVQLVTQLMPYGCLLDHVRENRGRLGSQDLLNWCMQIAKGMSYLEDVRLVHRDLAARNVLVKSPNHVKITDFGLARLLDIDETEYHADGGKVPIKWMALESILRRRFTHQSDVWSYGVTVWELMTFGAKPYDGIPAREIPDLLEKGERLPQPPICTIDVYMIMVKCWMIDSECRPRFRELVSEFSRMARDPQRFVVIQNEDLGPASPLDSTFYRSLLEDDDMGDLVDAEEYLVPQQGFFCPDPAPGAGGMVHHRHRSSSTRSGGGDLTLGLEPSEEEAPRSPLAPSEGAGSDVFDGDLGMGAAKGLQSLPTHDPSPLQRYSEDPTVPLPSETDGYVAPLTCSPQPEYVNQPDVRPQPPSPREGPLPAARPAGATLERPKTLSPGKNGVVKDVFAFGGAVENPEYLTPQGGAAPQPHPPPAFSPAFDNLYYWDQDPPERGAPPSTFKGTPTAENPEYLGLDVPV

[5] = system: HN5; assay: Antiproliferative activity against human HN5 cells expressing EGFR after 72 hrs by CTG assay; conditions: HN5, 72 h
[6] = system: BT-474; assay: Antiproliferative activity against human BT474 cells expressing ErbB2 by MEB assay
[7] = system: HN5; assay: Antiproliferative activity against human HN5 cells expressing EGFR by MEB assay
[8] = system: HFF; assay: Antiproliferative activity against HFF after 72 hrs by MEB assay; conditions: Homo sapiens
[9] = molecular target: T1, Receptor tyrosine-protein kinase erbB-2; assay: Inhibition of ErbB2 intracellular autophosphorylation of ErbB2 in human BT474 cells by DELFIA assay; format: cell-based, BT-474

Sequence of Epidermal growth factor receptor (P00533 whole entry): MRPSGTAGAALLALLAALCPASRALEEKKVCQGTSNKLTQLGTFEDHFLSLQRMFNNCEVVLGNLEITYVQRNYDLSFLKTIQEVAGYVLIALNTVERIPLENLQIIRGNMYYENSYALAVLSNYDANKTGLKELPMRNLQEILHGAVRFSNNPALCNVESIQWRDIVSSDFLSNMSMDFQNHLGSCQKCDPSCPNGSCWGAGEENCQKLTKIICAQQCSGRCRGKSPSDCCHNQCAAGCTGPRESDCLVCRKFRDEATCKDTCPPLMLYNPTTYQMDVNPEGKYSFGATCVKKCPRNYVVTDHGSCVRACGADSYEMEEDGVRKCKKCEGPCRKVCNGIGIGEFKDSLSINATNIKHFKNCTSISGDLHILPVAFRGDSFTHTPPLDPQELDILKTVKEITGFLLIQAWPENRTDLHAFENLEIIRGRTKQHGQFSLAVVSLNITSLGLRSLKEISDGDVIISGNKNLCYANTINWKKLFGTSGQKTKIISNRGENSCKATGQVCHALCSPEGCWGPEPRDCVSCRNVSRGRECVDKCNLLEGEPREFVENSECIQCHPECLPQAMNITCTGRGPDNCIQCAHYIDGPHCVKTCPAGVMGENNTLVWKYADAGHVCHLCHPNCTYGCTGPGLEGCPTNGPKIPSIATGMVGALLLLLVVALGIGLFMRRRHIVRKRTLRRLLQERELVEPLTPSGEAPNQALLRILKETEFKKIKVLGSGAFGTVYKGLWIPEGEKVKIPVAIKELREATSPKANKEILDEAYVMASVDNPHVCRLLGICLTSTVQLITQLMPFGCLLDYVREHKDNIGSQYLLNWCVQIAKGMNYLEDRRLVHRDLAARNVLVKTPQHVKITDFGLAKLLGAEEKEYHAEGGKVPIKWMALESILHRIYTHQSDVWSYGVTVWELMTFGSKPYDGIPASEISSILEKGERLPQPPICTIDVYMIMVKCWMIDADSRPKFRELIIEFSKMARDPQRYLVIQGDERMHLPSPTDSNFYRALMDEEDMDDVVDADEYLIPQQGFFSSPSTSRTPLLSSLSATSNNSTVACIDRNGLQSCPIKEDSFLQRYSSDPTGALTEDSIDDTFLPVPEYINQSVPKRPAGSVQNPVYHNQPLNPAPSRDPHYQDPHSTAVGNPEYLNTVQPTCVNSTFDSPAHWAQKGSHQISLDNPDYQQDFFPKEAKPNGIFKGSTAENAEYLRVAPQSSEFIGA

## Fc1cccc(COc2ccc(Nc3ncnc4cc(-c5cccs5)sc34)cc2Cl)c1
[1]
  IC50: 10700 nM
[2]
  IC50: 5770 nM
[3]
  IC50: 8 nM
[4]
  IC50: 113 nM
[5]
  IC50: 2190 nM

## OCc1ccc(-c2cc3ncnc(Nc4ccc(OCc5cccc(F)c5)c(Cl)c4)c3s2)o1
[6]
  IC50: 720 nM
[3]
  IC50: 3 nM
[4]
  IC50: 122 nM
[7]
  IC50: 100 nM
[8]
  IC50: 9390 nM

## N#CCNCc1ccc(-c2cc3ncnc(Nc4ccc(OCc5cccc(F)c5)c(Cl)c4)c3s2)o1
[4]
  IC50: 68 nM

## Fc1cccc(COc2ccc(Nc3ncnc4cc(-c5ccc[nH]5)sc34)cc2Cl)c1
[6]
  IC50: 540 nM
[3]
  IC50: 68 nM
[4]
  IC50: 121 nM
[7]
  IC50: 570 nM
[8]
  IC50: 2370 nM
[9]
  IC50: 826 nM

## CN(C)Cc1ccc(-c2cc3ncnc(Nc4ccc(OCc5cccc(F)c5)c(Cl)c4)c3s2)[nH]1
[3]
  IC50: 4 nM
[4]
  IC50: 76 nM

## CCNCc1ccc(-c2cc3ncnc(Nc4ccc(OCc5cccc(F)c5)c(Cl)c4)c3s2)[nH]1
[3]
  IC50: 6 nM
[4]
  IC50: 68 nM

## CS(=O)(=O)CCNCc1cc(-c2cc3ncnc(Nc4ccc(OCc5cccc(F)c5)c(Cl)c4)c3s2)cs1
[6]
  IC50: 600 nM
[3]
  IC50: 3 nM
[4]
  IC50: 31 nM
[7]
  IC50: 100 nM
[8]
  IC50: > 30000 nM

## CS(=O)(=O)CCNCc1ccc(-c2cc3ncnc(Nc4ccc(OCc5cccc(F)c5)c(Cl)c4)c3s2)[nH]1
[1]
  IC50: 3730 nM
[2]
  IC50: 630 nM
[3]
  IC50: 7 nM
[4]
  IC50: 113 nM
[5]
  IC50: 770 nM
[9]
  IC50: 431 nM

## CN(C)Cc1ccc(-c2cc3ncnc(Nc4ccc(OCc5cccc(F)c5)c(Cl)c4)c3s2)o1
[1]
  IC50: 4460 nM
[2]
  IC50: 1880 nM
[3]
  IC50: 2 nM
[4]
  IC50: 146 nM
[5]
  IC50: 1220 nM

## Fc1cccc(COc2ccc(Nc3ncnc4sc(-c5ccc[nH]5)cc34)cc2Cl)c1
[6]
  IC50: 1980 nM
[3]
  IC50: 115 nM
[4]
  IC50: 203 nM
[7]
  IC50: 2710 nM
[8]
  IC50: > 3000 nM

## CN(C)Cc1ccc(-c2cc3c(Nc4ccc(OCc5cccc(F)c5)c(Cl)c4)ncnc3s2)[nH]1
[3]
  IC50: 68 nM
[4]
  IC50: 246 nM

## CS(=O)(=O)CCNCc1ccc(-c2cc3ncnc(Nc4ccc(OCc5cccc(F)c5)c(Cl)c4)c3s2)o1
[1]
  IC50: > 30000 nM
[2]
  IC50: 420 nM
[3]
  IC50: 1 nM
[4]
  IC50: 71 nM
[5]
  IC50: 410 nM

## CS(=O)(=O)CCNCc1cc(-c2cc3ncnc(Nc4ccc(OCc5cccc(F)c5)c(Cl)c4)c3s2)co1
[6]
  IC50: 730 nM
[8]
  IC50: 7950 nM

## Fc1cccc(COc2ccc(Nc3ncnc4cc(-c5ccco5)sc34)cc2Cl)c1
[1]
  IC50: > 30000 nM
[2]
  IC50: 21200 nM
[3]
  IC50: 10 nM
[4]
  IC50: 709 nM
[5]
  IC50: 8090 nM

## CCNCc1ccc(-c2cc3c(Nc4ccc(OCc5cccc(F)c5)c(Cl)c4)ncnc3s2)[nH]1
[3]
  IC50: 121 nM
[4]
  IC50: 111 nM

## CS(=O)(=O)CCNCc1ccc(-c2cc3c(Nc4ccc(OCc5cccc(F)c5)c(Cl)c4)ncnc3s2)o1
[1]
  IC50: 19500 nM
[2]
  IC50: 420 nM
[3]
  IC50: 12 nM
[4]
  IC50: 6 nM
[5]
  IC50: 420 nM

## CS(=O)(=O)CCNCc1ccc(-c2cc3c(Nc4ccc(OCc5cccc(F)c5)c(Cl)c4)ncnc3s2)s1
[3]
  IC50: 96 nM
[4]
  IC50: 95 nM

## CS(=O)(=O)CCNCc1ccc(-c2cc3c(Nc4ccc(OCc5cccc(F)c5)c(Cl)c4)ncnc3s2)[nH]1
[3]
  IC50: 138 nM
[4]
  IC50: 153 nM

## Fc1cccc(COc2ccc(Nc3ncnc4sc(-c5ccc(CNCc6ccccc6)o5)cc34)cc2Cl)c1
[3]
  IC50: 54 nM
[4]
  IC50: 898 nM

## CS(=O)(=O)CCNCc1cc(-c2cc3c(Nc4ccc(OCc5cccc(F)c5)c(Cl)c4)ncnc3s2)cs1 [GSK-300014A]
[3]
  IC50: 304 nM
[4]
  IC50: 299 nM

## Fc1cccc(COc2ccc(Nc3ncnc4sc(-c5ccco5)cc34)cc2Cl)c1 [GSK-969786A]
[1]
  IC50: > 30000 nM
[2]
  IC50: > 30000 nM
[3]
  IC50: 15 nM
[4]
  IC50: 14 nM
[5]
  IC50: > 30000 nM

## Fc1cccc(COc2ccc(Nc3ncnc4sc(-c5cccs5)cc34)cc2Cl)c1 [GW684626B]
[1]
  IC50: 9720 nM
[2]
  IC50: 3220 nM
[3]
  IC50: 9 nM
[4]
  IC50: 43 nM
[5]
  IC50: 10100 nM

## CN1CCN(Cc2ccc(-c3cc4ncnc(Nc5ccc(OCc6cccc(F)c6)c(Cl)c5)c4s3)o2)CC1 [GW784684X]
[3]
  IC50: 5 nM
[4]
  IC50: 250 nM

## CS(=O)(=O)CCNCc1ccc(-c2ccc3ncnc(Nc4ccc(OCc5cccc(F)c5)c(Cl)c4)c3c2)o1 [LAPATINIB DITOSYLATE]
[6]
  IC50: 100 nM
